The text below walks through data of PMC8152588 (RSC Medicinal Chemistry, 2021).

Read-outs that look alike come from different tables or passages of the source. Some results are limits rather than exact numbers.

Data set [1] concerns NRK (normal rat kidney epithelial) cells. The data set is described as follows: Cytotoxicity. Type of data set: cell-based. The note with it: for Selectivity towards leukemic cells compared with NRK cells (factor): MOLM-13 vs NRK; for EC50: ±SEM.
The nature of another data set: Solubility observation. As to conditions: cell media / DMSO. Type of data set: physicochemical.
The next data set concerns MOLM-13 human AML cells. The note with it: ref Viktorsson et al.[26], cited from earlier work.
Setting [2] is: read-out: EC50 (μM) NRK 2% O2, 2% O2, 24 h exposure.
[3] abbreviates: read-out: EC50 (μM) MOLM-13 2% O2, 2% O2, ±SEM.
Setting [4] is: read-out: EC50 (μM) MOLM-13 19% O2, 19% O2, ±SEM.
Setting [5] is: read-out: EC50 (μM) NRK 19% O2, 19% O2, 24 h exposure.

A word on the EC50: it is the concentration at which the effect is half-maximal.

As for `CN1CCN(C(=O)Oc2cccc3c2[n+]([O-])c2cc(Cl)c(Cl)cc2[n+]3[O-])CC1` [Compound 54], the “Selectivity towards leukemic cells compared with NRK cells (factor)” value in data set [1] (19% O2) is recorded as “more than 30”.
Regarding `CCOC(=O)Oc1cccc2c1[n+]([O-])c1cccc(OC(=O)OCC)c1[n+]2[O-]` [Compound 14], in data set [1] (setting [2]), the concentration for a half-maximal effect (EC50) is above 25 µM.
For `[O-][n+]1c2cc3ccccc3cc2[n+]([O-])c2c(O)cccc21` [Compound 45], the Solubility entry in “Solubility observation” was “practically insoluble”.
With `COc1cccc2c1[n+]([O-])c1cccc(O)c1[n+]2[O-]` [Compound 4, 1-hydroxy-6-methoxyphenazine 5,10-dioxide], in data set [1] (hypoxic conditions (2% O2)), the “Selectivity towards leukemic cells compared with NRK cells (factor)” value is “around 100”. The figures for the half-maximal effective concentration (EC50) in the data set with MOLM-13 human AML cells (setting [3]) and in the data set with MOLM-13 human AML cells (setting [4]) were 0.77 ± 0.13 µM and 1.4 ± 0.3 µM, respectively.
In the case of `[O-][n+]1c2cccc(O)c2[n+]([O-])c2cccc(O)c21` [Compound 3, 1,6-dihydroxyphenazine 5,10-dioxide], the concentration for a half-maximal effect (EC50) in data set [1] (setting [2]) was above 50 µM; with MOLM-13 human AML cells (setting [3]), 0.79 ± 0.1 µM; in the data set on MOLM-13 human AML cells (setting [4]), 2 ± 0.07 µM.
Regarding `Nc1n[n+]([O-])c2ccccc2[n+]1[O-]` [Compound 10, 3-amino-1,2,4-benzotriazine 1,4-dioxide], the EC50 in data set [1] (setting [5]) was above 100 µM; in the data set with MOLM-13 human AML cells (setting [3]), 22 ± 2 µM; with MOLM-13 human AML cells (setting [4]), 95 ± 8 µM.
`[O-][n+]1c2ccccc2[n+]([O-])c2c(O)cccc21` [Compound 21, 1-Hydroxyphenazine 5,10-dioxide]: the EC50 in data set [1] (setting [2]) was above 100 µM.
Turning to `CCOC(=O)COc1cccc2c1[n+]([O-])c1cccc(O)c1[n+]2[O-]` [Compound 7, 1-hydroxy-6-(2-ethoxy-2-oxoethoxy) phenazine 5,10-dioxide], the values for the EC50 in the data set with MOLM-13 human AML cells (setting [3]) and in the data set on MOLM-13 human AML cells (setting [4]) were 0.49 ± 0.12 µM and 0.57 ± 0.06 µM, respectively.
Turning to `CCOC(=O)COc1cccc2c1[n+]([O-])c1cc(C)c(C)cc1[n+]2[O-]` [Compound 48], the EC50 in data set [1] (setting [2]) is above 100 µM; in data set [1] (setting [5]), 140 ± 2 µM.
Consider `Cc1cc2c(cc1C)[n+]([O-])c1c(O)cccc1[n+]2[O-]` [Compound 44, 7,8-Dimethyl-1-hydroxyphenazine 5,10-dioxide], for which the half-maximal effective concentration (EC50) in data set [1] (setting [2]) is above 50 µM.
